Tested on: mice
Test: Acetic acid-induced writhing test
Assay type: in vivo
Settings: 30 mg/kg i.p., vs control group
Protocol: Male Balb/c mice procured from the authorized animal supplier Biogen Laboratory Animal Facility, Bangalore, India were used for the animal experiments. The animals were housed in the animal facility of R&D Center, Vidya Herbs Pvt Ltd under controlled environmental conditions (temperature: 23±2° C., relative humidity: 35-50%, 12 h light/dark cycle). The animals were given commercial pellet diet and water ad libitum. All the animals were allowed to acclimatize to the environmental conditions before the start of experiments. The experimental protocols were approved by the Institutional Animal Ethics Committee (IAEC) of Vidya Herbs Pvt Ltd., Bangalore, India (VHPL/PCL/IAEC/01/2021).
Twenty-four male mice were randomized to four groups (n=6 in each group): Control group were given normal saline solution while positive control group received reference drug Diclofenac sodium (30 mg/kg). Two test doses of the inventive composition (25 and 50 mg/kg body weight) were used in the test. All the treatments were intraperitoneally injected. 30 min after the respective treatments, the animals were given 10 mL/kg body weight of 1% acetic acid intraperitoneally. The number of writhes were recorded after 10 min of acetic acid administration.
All the experimental data were analyzed by one way ANOVA followed by Tukey's multiple comparison test using GraphPad Prism 9.0 (GraphPad Software, Inc.). […]

Compound: O=C(O)Cc1ccccc1Nc1c(Cl)cccc1Cl [diclofenac sodium, Diclofenac sodium]
- writhing inhibition: 86.55%

Source: patent US20240091295A1, “PIPER NIGRUM COMPOSITION AND METHOD OF TREATING PAIN” (priority 2022, published 2024)
